Like-named read-outs stand apart in the source and are kept apart here.
Columns and labels:
μ opioidergic receptors = target: T1, μ opioidergic receptors (Mus musculus, UniProt P42866); experiment: Radioreceptorial binding, μ opioidergic receptors ([3H]-DAMGO, mouse brain membranes); settings: 1 nM [3H]-DAMGO, CD1 mouse brain membranes, 25° C., 60 minutes
T1 construct: from tissue; host or cells: CD1 mouse brain (excluding cerebellum) membranes

δ opioidergic receptors = target: T2, δ opioidergic receptors (Mus musculus, UniProt P32300); experiment: Radioreceptorial binding, δ opioidergic receptors ([3H]-DPDPE, mouse brain membranes); settings: 1 nM [3H]-DPDPE, CD1 mouse brain membranes, 25° C., 60 minutes
T2 construct: from tissue; host or cells: CD1 mouse vas deferens segments (isolated organ)
T2 sequence (P32300 whole entry): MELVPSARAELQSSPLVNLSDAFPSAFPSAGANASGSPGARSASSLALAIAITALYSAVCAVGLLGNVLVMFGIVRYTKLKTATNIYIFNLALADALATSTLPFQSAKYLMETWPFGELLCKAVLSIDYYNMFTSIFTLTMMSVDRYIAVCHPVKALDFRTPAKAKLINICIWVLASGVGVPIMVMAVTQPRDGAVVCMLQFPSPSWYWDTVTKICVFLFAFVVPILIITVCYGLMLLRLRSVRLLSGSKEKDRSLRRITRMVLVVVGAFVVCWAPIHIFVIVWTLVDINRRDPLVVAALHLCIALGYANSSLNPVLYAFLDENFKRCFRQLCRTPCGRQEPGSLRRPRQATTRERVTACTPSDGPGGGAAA

k opioidergic receptors = target: T3, k opioidergic receptors (Mus musculus, UniProt P33534); experiment: Radioreceptorial binding, k opioidergic receptors (3H-U 69.593, mouse brain membranes)
T3 construct: the complete brain (excluding the cerebellum) was quickly dissected and stored in ice; from tissue; host or cells: CD1 mouse brain (excluding cerebellum) membranes
T3 sequence (P33534 whole entry): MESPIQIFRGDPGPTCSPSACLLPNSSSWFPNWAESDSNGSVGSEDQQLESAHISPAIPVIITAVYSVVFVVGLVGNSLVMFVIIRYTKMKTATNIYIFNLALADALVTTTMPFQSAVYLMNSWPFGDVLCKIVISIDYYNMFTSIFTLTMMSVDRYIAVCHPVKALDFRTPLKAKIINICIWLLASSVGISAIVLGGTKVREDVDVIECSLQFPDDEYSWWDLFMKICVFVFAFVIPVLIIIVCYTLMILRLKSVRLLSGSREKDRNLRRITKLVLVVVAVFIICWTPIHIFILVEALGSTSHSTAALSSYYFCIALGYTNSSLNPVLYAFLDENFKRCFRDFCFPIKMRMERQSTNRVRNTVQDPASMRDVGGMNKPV
Excerpt: The affinity of the compounds synthesized towards the opioidergic receptors μ, δ, k has been evaluated in vitro by radioreceptorial binding studies by using the method reported hereinunder.
For evaluating the affinity of a compound to a particular receptor(s) it is used a preparation of a tissue wherein the particular receptor(s) is (are) present, with which the compound is contacted. The tested compound is challenged with a radioactive labelled compound whose affinity for the same receptor(s) is known. The ability of the tested compound to displace the radioactive compound from the receptor gives an index of the affinity of the compound under test for the specific receptor. The amount of radioactivity present in the receptor-compound complex allows furthermore to calculate with great accuracy the amount of compound bound to the receptor. By said method it is therefore possible to quickly establish the affinity of a new compound towards a specific receptor and thus determine its pharmacological activity. With the same experimental protocol it is possible to evaluate the affinity of the compound towards other receptors and thus establishing the specificity degree of the compound towards these further receptors.
The experimentation has been carried out according to the guide lines of the European Community for the animal experimentation (EEC n. 86/609), by using laboratory animals (CD1 Charles River Italy male mice, Calco, LC, Italy) lodged twenty per cage, under standard stabulation conditions (temperature 22±2° C., relative humidity 60%, artificial lighting with light/dark cycle of 12 hours). The food and water were ad libitum.
Receptors k: CD1 male mice weighing 20-25 g were used. The animals were sacrificed by cervical dislocation and the complete brain (excluding the cerebellum) was quickly dissected and stored in ice. The tissue was homogeneized in 40 volumes (w/v) of Tris-HCl buffer (50 Mm, pH 7.4) by an Ultra-Turrax, then centrifuged for 20 minutes at 48,000×g in a centrifuge refrigerated at 4° C. The […] was resuspended in the same buffer and incubated at 37° C. for 30 minutes in an oscillating bath. At the end of the incubation the suspension was centrifuged at 48,000×g for 15 minutes and the obtained pellets resuspended in 10 volumes of Tris-HCl buffer. The binding experiment was carried out in a 1 ml volume of the suspension at the temperature of 25° C. with a protein content in the sample of about 800-1000 μg. Incubation was carried out for 60 minutes in the presence of various concentrations of the ligand ^3H-U 69.593 (41.7 Ci/mmole). The non specific binding was determined in the presence of U69593 (10 μM). Incubation was then interrupted by performing a quick filtration by filtration apparatus Brandell®, Gaithersburg, Md., USA), by using GF/C filters (Whatman®). Receptors μ and δ: the experiments were carried out according to the method described by Unterwald (1995), by using CD1 male mice weighing 20-25 g, lodged twenty in a cage, under standard stabulation conditions (temperature 22±2° C., relative humidity 60%, artificial lighting with light/dark cycle of 12 hours). After sacrifice, the complete brain (excluding the cerebellum) was quickly dissected. The so obtained tissues were rapidly homogenized, by a Polytron® equipment in 50 volumes of Tris HCl buffer (50 mM), pH 7.4 and the homogenate centrifuged at 48,000×g for 20 minutes at 4° C. The pellets obtained after centrifugation were suspended in 50 volumes of the same buffer and the so prepared suspensions were incubated at 37° C. for 45 minutes, in an oscillating bath, for making easier the separation of the endogenous opioids from the receptors. At the end of the incubation the suspensions were centrifuged at 48,000×g, for 20 minutes at 4° C. and the resulting pellets resuspended in 40 volumes of the Tris HCl (50 mM) buffer, pH 7.4. The suspension of cerebral membranes was used for the binding tests. […]

T1 sequence (P42866 whole entry): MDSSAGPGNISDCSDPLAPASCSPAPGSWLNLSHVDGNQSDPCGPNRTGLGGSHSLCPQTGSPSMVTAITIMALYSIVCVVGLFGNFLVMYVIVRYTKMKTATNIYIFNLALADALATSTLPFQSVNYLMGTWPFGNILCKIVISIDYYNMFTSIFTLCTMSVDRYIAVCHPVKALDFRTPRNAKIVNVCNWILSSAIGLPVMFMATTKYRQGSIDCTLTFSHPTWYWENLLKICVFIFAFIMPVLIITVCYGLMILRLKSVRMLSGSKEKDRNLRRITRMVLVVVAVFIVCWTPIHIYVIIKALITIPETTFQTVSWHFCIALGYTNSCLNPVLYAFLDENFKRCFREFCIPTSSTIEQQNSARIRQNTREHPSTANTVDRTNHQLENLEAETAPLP

Compound `C=CCN1C2CCC1C1CCC2N1C(c1ccc(C(=O)N(CC)CC)cc1)c1cccc(OC)c1` (stereo not drawn) [Example 6.1, 4-[(10-allyl-9,10-diazatricyclo[4.2.1.1^2,5]dec-9-yl)-(3-methoxyphenyl)methyl]-N,N-diethylbenzamide] has a Ki (μ opioidergic receptors) of 1630 ± 186 nM, a Ki (δ opioidergic receptors) of 0.203 ± 0.032 nM and a Ki (k opioidergic receptors) of 55 ± 25 nM.
`C=CCN1C2CCC1C1CCC2N1C(c1ccc(C(=O)N(CC)CC)cc1)c1cccc(O)c1` (stereo not drawn) [Example 6.9, 4-[(10-allyl-9,10-diazatricyclo[4.2.1.1^2,5]dec-9-yl)-(3-hydroxyphenyl)methyl]-N,N-diethylbenzamide] showed a Ki (μ opioidergic receptors) of 20 ± 0.5 nM, a Ki (δ opioidergic receptors) of 0.23 ± 0.03 nM and a Ki (k opioidergic receptors; 3H-U 69.593, CD1 mouse brain membranes, 25° C., 60 minutes, read-out: Ki k) of 4.8 ± 0.9 nM.
